Measured values: patent publication US6835748B2, “Treatment of ocular disorders” (priority 1999, dated 2004)

Assays:
Type in all cases: in vivo, rabbit
[1] = tested on: normotensive adult rabbits; assay: Pupil diameter measurement; conditions: topical 1%, 2%, 5% solutions
Protocol: (§1) Male and female adult brown burgundy rabbits (2.6-4.4 kg) are used in this study. Animals are kept in individual cages under well-defined and standardized conditions (humidity and temperature controlled room, 13 h light/11 h dark cycle) with standard dry food and water ad libitum. All animals are accustomed to the procedure of IOP measurement but only those animals that have stable records are included in the study. All experiments are conducted in accordance with the ARVO resolution for the use of animals in ophthalmic and vision research and are approved by the Federal and Local Ethical and Agricultural Committees.
(§2) Solutions of a test drug are freshly prepared before each experiment by dissolution in sterile balanced salt solution (BSS) (Alcon Pharmaceuticals Ltd, Forth Worth, Tex., USA) at the required concentrations under sterile conditions. One 50-μL drop of the test solution is applied topically to the right eye whereas the contralateral eye receives the carrier BSS only.
Pupil diameter is measured horizontally in both eyes using a pupil gauge closely applied to the cornea under diffuse illumination conditions.

[2] = tested on: normotensive adult rabbits; assay: Slit-lamp examination (local tolerability); conditions: topical 1%, 2%, 5% solutions; before and 4 and 8 hours after administration
Protocol: as §1, §2
Slit-lamp biomicroscopy is performed by a trained ophthalmologist before drug administration and 4 and 8 hours thereafter. Eyes are controlled for conjunctival redness and discharge, for integrity of the corneal epithelium and for the absence or presence of flare (protein in the anterior chamber being an indication of blood aqueous barrier breakdown).

[3] = tested on: normotensive adult rabbits; assay: IOP measurement (TonoPen XL) after a single topical 50-μL drop in rabbits
Protocol: as §1, §2
IOP is measured with a TonoPen XL (Mentor, Norvel, Mass.), the device being calibrated daily according to the manufacturer's instructions. […] Corneas are anaesthetized by topical application of a 50-μL drop of 0.2% Novocaine prior to each IOP measurement.
Measurements are always initiated at the same time (8 a.m.), a sufficient recovery period of at least 7 days is provided for the animals between the experiments. Control readings are taken 10 minutes before instillation of the test drug to the right eye and of the vehicle to the left one. IOP is recorded at 1-hour intervals for the ensuing 8 hours. Baseline measurements are likewise performed hourly in all animals prior to treatment, for monitoring of diurnal rhythms. (9)
Data are analyzed according to the Mann-Whitney U-test. IOP values recorded before and after application of Rivastigmine or the drug vehicle are compared in the same eye, differences with a first order error of P<0.05 being considered as statistically significant.

CCN(C)C(=O)Oc1cccc(C(C)N(C)C)c1 (centres unmarked) [Rivastigmine]
Pupil reaction in drug-treated eyes [1]: insignificant miotic pupil reaction
Local toxicity (slit-lamp: redness, discharge, corneal epithelium, flare) [2]: No signs of rivastigmine-related local toxicity
Time of maximal mean decrease in IOP, treated eye ([3]; 1% solution): 5 h
Duration of significant IOP-lowering effect, treated eyes ([3]; 1% solution (longest effect)): 5 h
IOP, left eye (untreated, vehicle) ([3]; 1% solution applied to contralateral right eye, n=8, time 0 hrs (control reading before instillation)): 12.0 mm
Time of maximal mean decrease in IOP, untreated eye ([3]; 1% solution to contralateral eye): 4 h
IOP, left eye (untreated, vehicle) ([3]; 1% solution to contralateral eye, time 1 hrs): 11.6 mm
IOP, left eye (untreated, vehicle) ([3]; 1% solution to contralateral eye, time 2 hrs): 11.2 mm
IOP, left eye (untreated, vehicle) ([3]; 1% solution to contralateral eye, time 3 hrs): 11.1 mm
IOP, left eye (untreated, vehicle) ([3]; 1% solution to contralateral eye, time 4 hrs): 10.2 mm
IOP, left eye (untreated, vehicle) ([3]; 1% solution to contralateral eye, time 5 hrs): 11.0 mm
IOP, left eye (untreated, vehicle) ([3]; 1% solution to contralateral eye, time 6 hrs): 10.7 mm
IOP, left eye (untreated, vehicle) ([3]; 1% solution to contralateral eye, time 7 hrs): 11.1 mm
IOP, left eye (untreated, vehicle) ([3]; 1% solution to contralateral eye, time 8 hrs): 11.4 mm
IOP, right eye (treated) ([3]; 1% solution, 50-μL drop topical, n=8, time 0 hrs (control reading before instillation)): 12.3 mm
Maximal mean decrease in IOP, treated eye ([3]; 1% solution, 5 hours after application): 2.6±1.2 mm Hg
IOP, right eye (treated) ([3]; 1% solution, time 1 hrs): 12.0 mm
IOP, right eye (treated) ([3]; 1% solution, time 2 hrs): 11.2 mm
IOP, right eye (treated) ([3]; 1% solution, time 3 hrs): 10.8 mm
IOP, right eye (treated) ([3]; 1% solution, time 4 hrs): 10.5 mm
IOP, right eye (treated) ([3]; 1% solution, time 5 hrs): 10.1 mm
IOP, right eye (treated) ([3]; 1% solution, time 6 hrs): 11.1 mm
IOP, right eye (treated) ([3]; 1% solution, time 7 hrs): 11.5 mm
IOP, right eye (treated) ([3]; 1% solution, time 8 hrs): 11.6 mm
Time of maximal mean decrease in IOP, treated eye ([3]; 2% solution): 3 h
IOP, left eye (untreated, vehicle) ([3]; 2% solution applied to contralateral right eye, n=4, time 0 hrs (control reading before instillation)): 11.2 mm
Time of maximal mean decrease in IOP, untreated eye ([3]; 2% solution to contralateral eye): 3 h
IOP, left eye (untreated, vehicle) ([3]; 2% solution to contralateral eye, time 1 hrs): 11.9 mm
IOP, left eye (untreated, vehicle) ([3]; 2% solution to contralateral eye, time 2 hrs): 11.2 mm
IOP, left eye (untreated, vehicle) ([3]; 2% solution to contralateral eye, time 3 hrs): 10.2 mm
IOP, left eye (untreated, vehicle) ([3]; 2% solution to contralateral eye, time 4 hrs): 12.3 mm
IOP, left eye (untreated, vehicle) ([3]; 2% solution to contralateral eye, time 5 hrs): 11.5 mm
IOP, left eye (untreated, vehicle) ([3]; 2% solution to contralateral eye, time 6 hrs): 11.2 mm
IOP, left eye (untreated, vehicle) ([3]; 2% solution to contralateral eye, time 7 hrs): 11.0 mm
IOP, left eye (untreated, vehicle) ([3]; 2% solution to contralateral eye, time 8 hrs): 13.0 mm
IOP, right eye (treated) ([3]; 2% solution, 50-μL drop topical, n=4, time 0 hrs (control reading before instillation)): 11.5 mm
Maximal mean decrease in IOP, treated eye ([3]; 2% solution, 3 hours after application): 2.2±0.8 mm Hg
IOP, right eye (treated) ([3]; 2% solution, time 1 hrs): 11.5 mm
IOP, right eye (treated) ([3]; 2% solution, time 2 hrs): 11.0 mm
IOP, right eye (treated) ([3]; 2% solution, time 3 hrs): 9.2 mm
IOP, right eye (treated) ([3]; 2% solution, time 4 hrs): 10.8 mm
IOP, right eye (treated) ([3]; 2% solution, time 5 hrs): 11.5 mm
IOP, right eye (treated) ([3]; 2% solution, time 6 hrs): 11.1 mm
IOP, right eye (treated) ([3]; 2% solution, time 7 hrs): 10.8 mm
IOP, right eye (treated) ([3]; 2% solution, time 8 hrs): 12.0 mm
Time of maximal mean decrease in IOP, treated eye ([3]; 5% solution): 1 h
IOP, left eye (untreated, vehicle) ([3]; 5% solution applied to contralateral right eye, n=6, time 0 hrs (control reading before instillation)): 13.4 mm
Time of maximal mean decrease in IOP, untreated eye ([3]; 5% solution to contralateral eye): 1 h
IOP, left eye (untreated, vehicle) ([3]; 5% solution to contralateral eye, time 1 hrs): 10.7 mm
IOP, left eye (untreated, vehicle) ([3]; 5% solution to contralateral eye, time 2 hrs): 11.5 mm
IOP, left eye (untreated, vehicle) ([3]; 5% solution to contralateral eye, time 3 hrs): 11.3 mm
IOP, left eye (untreated, vehicle) ([3]; 5% solution to contralateral eye, time 4 hrs): 11.9 mm
IOP, left eye (untreated, vehicle) ([3]; 5% solution to contralateral eye, time 5 hrs): 13.2 mm
IOP, left eye (untreated, vehicle) ([3]; 5% solution to contralateral eye, time 6 hrs): 12.5 mm
IOP, left eye (untreated, vehicle) ([3]; 5% solution to contralateral eye, time 7 hrs): 13.3 mm
IOP, left eye (untreated, vehicle) ([3]; 5% solution to contralateral eye, time 8 hrs): 13.0 mm
Significance of IOP decrease in untreated eyes ([3]; 5% solution to contralateral eye, P<0.05, Mann-Whitney U-test): significant
IOP, right eye (treated) ([3]; 5% solution, 50-μL drop topical, n=6, time 0 hrs (control reading before instillation)): 13.7 mm
Maximal mean decrease in IOP, treated eye ([3]; 5% solution, 1 hour after application): 3.5±1.2 mm Hg
IOP, right eye (treated) ([3]; 5% solution, time 1 hrs): 10.0 mm
IOP, right eye (treated) ([3]; 5% solution, time 2 hrs): 11.1 mm
IOP, right eye (treated) ([3]; 5% solution, time 3 hrs): 10.8 mm
IOP, right eye (treated) ([3]; 5% solution, time 4 hrs): 10.5 mm
IOP, right eye (treated) ([3]; 5% solution, time 5 hrs): 12.9 mm
IOP, right eye (treated) ([3]; 5% solution, time 6 hrs): 12.5 mm
IOP, right eye (treated) ([3]; 5% solution, time 7 hrs): 14.0 mm
IOP, right eye (treated) ([3]; 5% solution, time 8 hrs): 11.8 mm
IOP effect in the treated eye (in words) ([3]; topical 1%, 2%, 5% solutions): lowers the IOP significantiy
